Measurements taken from PubChem BioAssay AID1259407 (Chemical Carcinogenesis Research Information System (CCRIS), 2018).
Active and inactive are the calls of the source. How the calls were made is not given here.

Test system: CCRIS mutagenicity, Ames/micronucleus/aberration tests
Experiment: CCRIS mutagenicity studies

## O=C(O)CN(CC(=O)O)CC(=O)O
End Point: IN VITRO CHROMOSOMAL ABERRATIONS, Test System: CHO CELLS, Metabolic Activation: NONE
  mutagenic call: inactive; negative
End Point: IN VITRO CHROMOSOMAL ABERRATIONS, Test System: CHO CELLS, Metabolic Activation: RAT, LIVER, S-9, AROCLOR 1254
  mutagenic call: inactive; negative
End Point: IN VITRO MICRONUCLEUS, Test System: CHINESE HAMSTER EMBRYONIC LUNG (CL-1) CELLS, Metabolic Activation: NONE
  mutagenic call: active; positive at higher doses
End Point: In vitro micronucleus, Test System: CTLL-2 T mouse lymphocyte cells, Metabolic Activation: None
  mutagenic call: active; positive
End Point: In vitro micronucleus, Test System: CTLL-2 T mouse lymphocyte cells, Metabolic Activation: Rat, Kidney, S9, Aroclor 1254 with NADP
  mutagenic call: inactive; negative
End Point: In vitro micronucleus, Test System: CTLL-2 T mouse lymphocyte cells, Metabolic Activation: Rat, Kidney, S9, Aroclor 1254 with arachidonic acid instead of NADP
  mutagenic call: inactive; negative
End Point: In vitro micronucleus, Test System: CTLL-2 T mouse lymphocyte cells, Metabolic Activation: Rat, Liver, S9, Aroclor 1254
  mutagenic call: inactive; negative
End Point: In vitro micronucleus, Test System: CTLL-2 bcl2 mouse lymphocyte cells, Metabolic Activation: None
  mutagenic call: active; positive
End Point: In vitro micronucleus, Test System: CTLL-2 bcl2 mouse lymphocyte cells, Metabolic Activation: Rat, Kidney, S9, Aroclor 1254 with NADP
  mutagenic call: inactive; negative
End Point: In vitro micronucleus, Test System: CTLL-2 bcl2 mouse lymphocyte cells, Metabolic Activation: Rat, Kidney, S9, Aroclor 1254 with arachidonic acid instead of NADP
  mutagenic call: inactive; negative
End Point: In vitro micronucleus, Test System: CTLL-2 bcl2 mouse lymphocyte cells, Metabolic Activation: Rat, Liver, S9, Aroclor 1254
  mutagenic call: inactive; negative
End Point: In vitro micronucleus, Test System: L5178Y mouse lymphoma cells, Metabolic Activation: None
  mutagenic call: active; positive
End Point: In vitro micronucleus, Test System: L5178Y mouse lymphoma cells, Metabolic Activation: Rat, Kidney, S9, Aroclor 1254 with NADP
  mutagenic call: inactive; negative
End Point: In vitro micronucleus, Test System: L5178Y mouse lymphoma cells, Metabolic Activation: Rat, Kidney, S9, Aroclor 1254 with arachidonic acid instead of NADP
  mutagenic call: inactive; negative
End Point: In vitro micronucleus, Test System: L5178Y mouse lymphoma cells, Metabolic Activation: Rat, Liver, S9, Aroclor 1254
  mutagenic call: inactive; negative
Test System: AMES SALMONELLA TYPHIMURIUM, Strain/Indicator: TA97, Metabolic Activation: HAMSTER, LIVER, S-9, AROCLOR 1254 (10 OR 30%), Method: PREINCUBATION
  mutagenic call: inactive; negative
Test System: AMES SALMONELLA TYPHIMURIUM, Strain/Indicator: TA97, Metabolic Activation: NONE, Method: PREINCUBATION
  mutagenic call: inactive; negative
Test System: AMES SALMONELLA TYPHIMURIUM, Strain/Indicator: TA97, Metabolic Activation: NONE, Method: SUSPENSION/PLATE
  mutagenic call: inactive; negative
Test System: AMES SALMONELLA TYPHIMURIUM, Strain/Indicator: TA97, Metabolic Activation: RAT, LIVER, S-9, AROCLOR 1254 (10 OR 30%), Method: PREINCUBATION
  mutagenic call: inactive; negative
Test System: AMES SALMONELLA TYPHIMURIUM, Strain/Indicator: TA98, Metabolic Activation: HAMSTER, LIVER, S-9, AROCLOR 1254 (10 OR 30%), Method: PREINCUBATION
  mutagenic call: inactive; negative
Test System: AMES SALMONELLA TYPHIMURIUM, Strain/Indicator: TA98, Metabolic Activation: HAMSTER, LIVER, S-9, AROCLOR 1254, Method: STANDARD PLATE
  mutagenic call: inactive; negative
Test System: AMES SALMONELLA TYPHIMURIUM, Strain/Indicator: TA98, Metabolic Activation: HAMSTER, LIVER, S-9, Method: STANDARD PLATE
  mutagenic call: inactive; negative
Test System: AMES SALMONELLA TYPHIMURIUM, Strain/Indicator: TA98, Metabolic Activation: MOUSE, LIVER, S-9, AROCLOR 1254, Method: STANDARD PLATE
  mutagenic call: inactive; negative
Test System: AMES SALMONELLA TYPHIMURIUM, Strain/Indicator: TA98, Metabolic Activation: MOUSE, LIVER, S-9, Method: STANDARD PLATE
  mutagenic call: inactive; negative
Test System: AMES SALMONELLA TYPHIMURIUM, Strain/Indicator: TA98, Metabolic Activation: NONE, Method: PREINCUBATION
  mutagenic call: inactive; negative
Test System: AMES SALMONELLA TYPHIMURIUM, Strain/Indicator: TA98, Metabolic Activation: NONE, Method: STANDARD PLATE
  mutagenic call: inactive; negative
Test System: AMES SALMONELLA TYPHIMURIUM, Strain/Indicator: TA98, Metabolic Activation: NONE, Method: SUSPENSION/PLATE
  mutagenic call: inactive; negative
Test System: AMES SALMONELLA TYPHIMURIUM, Strain/Indicator: TA98, Metabolic Activation: RAT, LIVER, S-9, AROCLOR 1254 (10 OR 30%), Method: PREINCUBATION
  mutagenic call: inactive; negative
Test System: AMES SALMONELLA TYPHIMURIUM, Strain/Indicator: TA98, Metabolic Activation: RAT, LIVER, S-9, AROCLOR 1254, Method: STANDARD PLATE
  mutagenic call: inactive; negative
Test System: AMES SALMONELLA TYPHIMURIUM, Strain/Indicator: TA98, Metabolic Activation: RAT, LIVER, S-9, Method: STANDARD PLATE
  mutagenic call: inactive; negative
Test System: AMES SALMONELLA TYPHIMURIUM, Strain/Indicator: TA100(1,8-DNP6), Metabolic Activation: NONE, Method: SUSPENSION/PLATE
  mutagenic call: inactive; negative
Test System: AMES SALMONELLA TYPHIMURIUM, Strain/Indicator: TA100(NR), Metabolic Activation: NONE, Method: SUSPENSION/PLATE
  mutagenic call: inactive; negative
Test System: AMES SALMONELLA TYPHIMURIUM, Strain/Indicator: TA100, Metabolic Activation: HAMSTER, LIVER, S-9, AROCLOR 1254 (10 OR 30%), Method: PREINCUBATION
  mutagenic call: inactive; negative
Test System: AMES SALMONELLA TYPHIMURIUM, Strain/Indicator: TA100, Metabolic Activation: HAMSTER, LIVER, S-9, AROCLOR 1254, Method: STANDARD PLATE
  mutagenic call: inactive; negative
Test System: AMES SALMONELLA TYPHIMURIUM, Strain/Indicator: TA100, Metabolic Activation: HAMSTER, LIVER, S-9, Method: STANDARD PLATE
  mutagenic call: inactive; negative
Test System: AMES SALMONELLA TYPHIMURIUM, Strain/Indicator: TA100, Metabolic Activation: MOUSE, LIVER, S-9, AROCLOR 1254, Method: STANDARD PLATE
  mutagenic call: inactive; negative
Test System: AMES SALMONELLA TYPHIMURIUM, Strain/Indicator: TA100, Metabolic Activation: MOUSE, LIVER, S-9, Method: STANDARD PLATE
  mutagenic call: inactive; negative
Test System: AMES SALMONELLA TYPHIMURIUM, Strain/Indicator: TA100, Metabolic Activation: NONE, Method: PREINCUBATION
  mutagenic call: inactive; negative
Test System: AMES SALMONELLA TYPHIMURIUM, Strain/Indicator: TA100, Metabolic Activation: NONE, Method: STANDARD PLATE
  mutagenic call: inactive; negative
Test System: AMES SALMONELLA TYPHIMURIUM, Strain/Indicator: TA100, Metabolic Activation: NONE, Method: SUSPENSION/PLATE
  mutagenic call: inactive; negative
Test System: AMES SALMONELLA TYPHIMURIUM, Strain/Indicator: TA100, Metabolic Activation: RAT, LIVER, S-9, AROCLOR 1254 (10 OR 30%), Method: PREINCUBATION
  mutagenic call: inactive; negative
Test System: AMES SALMONELLA TYPHIMURIUM, Strain/Indicator: TA100, Metabolic Activation: RAT, LIVER, S-9, AROCLOR 1254, Method: STANDARD PLATE
  mutagenic call: inactive; negative
Test System: AMES SALMONELLA TYPHIMURIUM, Strain/Indicator: TA100, Metabolic Activation: RAT, LIVER, S-9, Method: STANDARD PLATE
  mutagenic call: inactive; negative
Test System: AMES SALMONELLA TYPHIMURIUM, Strain/Indicator: TA102, Metabolic Activation: NONE, Method: SUSPENSION/PLATE
  mutagenic call: inactive; negative
Test System: AMES SALMONELLA TYPHIMURIUM, Strain/Indicator: TA1535, Metabolic Activation: HAMSTER, LIVER, S-9, AROCLOR 1254 (10 OR 30%), Method: PREINCUBATION
  mutagenic call: inactive; negative
Test System: AMES SALMONELLA TYPHIMURIUM, Strain/Indicator: TA1535, Metabolic Activation: HAMSTER, LIVER, S-9, AROCLOR 1254, Method: STANDARD PLATE
  mutagenic call: inactive; negative
Test System: AMES SALMONELLA TYPHIMURIUM, Strain/Indicator: TA1535, Metabolic Activation: HAMSTER, LIVER, S-9, Method: STANDARD PLATE
  mutagenic call: inactive; negative
Test System: AMES SALMONELLA TYPHIMURIUM, Strain/Indicator: TA1535, Metabolic Activation: MOUSE, LIVER, S-9, AROCLOR 1254, Method: STANDARD PLATE
  mutagenic call: inactive; negative
Test System: AMES SALMONELLA TYPHIMURIUM, Strain/Indicator: TA1535, Metabolic Activation: MOUSE, LIVER, S-9, Method: STANDARD PLATE
  mutagenic call: inactive; negative
Test System: AMES SALMONELLA TYPHIMURIUM, Strain/Indicator: TA1535, Metabolic Activation: NONE, Method: PREINCUBATION
  mutagenic call: inactive; negative
